{"source": "patent US20240343692A1", "about": "(priority 2021, published 2024)", "origin": "cited, not measured here", "key": {"Dopamine D2L": {"target": "Dopamine D2L (Homo sapiens, UniProt P14416)", "sequence (P14416 whole entry)": "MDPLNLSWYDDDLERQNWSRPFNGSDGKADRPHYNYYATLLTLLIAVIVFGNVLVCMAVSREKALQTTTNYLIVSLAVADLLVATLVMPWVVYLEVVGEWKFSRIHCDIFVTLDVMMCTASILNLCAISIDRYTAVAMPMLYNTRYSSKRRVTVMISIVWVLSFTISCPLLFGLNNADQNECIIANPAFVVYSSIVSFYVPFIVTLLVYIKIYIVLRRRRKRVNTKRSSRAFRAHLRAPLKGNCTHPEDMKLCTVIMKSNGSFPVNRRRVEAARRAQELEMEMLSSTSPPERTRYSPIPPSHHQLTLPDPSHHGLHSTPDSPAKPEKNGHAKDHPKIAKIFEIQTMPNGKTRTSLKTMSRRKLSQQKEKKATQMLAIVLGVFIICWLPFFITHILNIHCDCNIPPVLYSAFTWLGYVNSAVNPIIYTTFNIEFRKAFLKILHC", "settings": "10 μM; data from ref. 34; cited from earlier work"}, "Muscarinic M5": {"target": "T1, Muscarinic M5 (Homo sapiens, UniProt P08912)", "T1 sequence (P08912 1-532)": "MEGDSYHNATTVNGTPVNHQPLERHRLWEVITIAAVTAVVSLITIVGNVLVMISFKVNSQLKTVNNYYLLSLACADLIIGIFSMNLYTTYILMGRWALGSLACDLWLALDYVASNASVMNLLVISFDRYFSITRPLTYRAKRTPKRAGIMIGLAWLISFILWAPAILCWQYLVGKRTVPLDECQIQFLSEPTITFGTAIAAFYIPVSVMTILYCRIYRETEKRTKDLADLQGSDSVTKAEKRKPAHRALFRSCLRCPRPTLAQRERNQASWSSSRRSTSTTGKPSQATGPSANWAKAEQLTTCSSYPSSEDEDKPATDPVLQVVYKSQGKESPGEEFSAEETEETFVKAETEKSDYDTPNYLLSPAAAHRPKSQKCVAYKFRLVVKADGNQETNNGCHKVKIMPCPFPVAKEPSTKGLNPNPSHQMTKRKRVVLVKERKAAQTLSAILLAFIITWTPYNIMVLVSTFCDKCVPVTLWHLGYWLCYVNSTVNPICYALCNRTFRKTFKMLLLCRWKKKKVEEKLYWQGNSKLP", "settings": "10 μM; data from ref. 34; cited from earlier work"}, "Adrenergic α1": {"test_system": "Adrenergic α1", "settings": "10 μM; rat receptor data; data from ref. 35; cited from earlier work"}, "GABAA": {"test_system": "GABAA", "settings": "10 μM; rat receptor data; data from ref. 34; cited from earlier work"}, "Muscarinic M2": {"target": "T2, Muscarinic M2 (Homo sapiens, UniProt P08172)", "T2 sequence (P08172 1-466)": "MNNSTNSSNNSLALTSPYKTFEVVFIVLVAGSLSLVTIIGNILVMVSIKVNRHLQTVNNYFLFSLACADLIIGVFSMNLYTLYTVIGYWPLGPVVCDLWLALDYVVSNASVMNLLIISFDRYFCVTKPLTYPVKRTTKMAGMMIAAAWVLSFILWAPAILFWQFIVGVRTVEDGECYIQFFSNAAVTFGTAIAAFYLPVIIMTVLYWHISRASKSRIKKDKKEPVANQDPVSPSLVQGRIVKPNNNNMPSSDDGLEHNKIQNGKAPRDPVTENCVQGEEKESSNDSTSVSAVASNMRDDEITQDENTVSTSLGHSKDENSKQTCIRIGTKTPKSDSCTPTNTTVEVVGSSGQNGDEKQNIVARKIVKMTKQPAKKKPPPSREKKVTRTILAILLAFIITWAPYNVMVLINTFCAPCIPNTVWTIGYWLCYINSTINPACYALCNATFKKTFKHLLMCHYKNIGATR", "settings": "10 μM; data from ref. 34; cited from earlier work"}, "[1]": {"target": "Nicotinic Acetylcholine α4β2 (Homo sapiens, UniProt P17787+P43681)", "sequence (P43681 29-627 limits assumed)": "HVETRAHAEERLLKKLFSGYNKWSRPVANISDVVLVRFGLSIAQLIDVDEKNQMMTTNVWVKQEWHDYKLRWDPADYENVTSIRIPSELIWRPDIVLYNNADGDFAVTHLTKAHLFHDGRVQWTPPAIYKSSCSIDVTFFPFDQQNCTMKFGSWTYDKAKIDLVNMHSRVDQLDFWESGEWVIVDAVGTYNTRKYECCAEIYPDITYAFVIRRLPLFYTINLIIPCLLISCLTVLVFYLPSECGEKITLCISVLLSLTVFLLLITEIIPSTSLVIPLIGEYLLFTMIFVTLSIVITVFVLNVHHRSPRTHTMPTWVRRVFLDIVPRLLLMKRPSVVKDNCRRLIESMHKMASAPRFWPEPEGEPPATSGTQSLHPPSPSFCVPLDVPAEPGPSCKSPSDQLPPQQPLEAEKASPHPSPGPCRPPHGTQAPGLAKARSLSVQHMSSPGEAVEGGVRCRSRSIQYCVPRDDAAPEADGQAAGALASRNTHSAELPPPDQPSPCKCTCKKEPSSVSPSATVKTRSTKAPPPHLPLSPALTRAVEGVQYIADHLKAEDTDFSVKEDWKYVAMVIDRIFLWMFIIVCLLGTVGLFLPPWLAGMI", "sequence (P17787 26-502)": "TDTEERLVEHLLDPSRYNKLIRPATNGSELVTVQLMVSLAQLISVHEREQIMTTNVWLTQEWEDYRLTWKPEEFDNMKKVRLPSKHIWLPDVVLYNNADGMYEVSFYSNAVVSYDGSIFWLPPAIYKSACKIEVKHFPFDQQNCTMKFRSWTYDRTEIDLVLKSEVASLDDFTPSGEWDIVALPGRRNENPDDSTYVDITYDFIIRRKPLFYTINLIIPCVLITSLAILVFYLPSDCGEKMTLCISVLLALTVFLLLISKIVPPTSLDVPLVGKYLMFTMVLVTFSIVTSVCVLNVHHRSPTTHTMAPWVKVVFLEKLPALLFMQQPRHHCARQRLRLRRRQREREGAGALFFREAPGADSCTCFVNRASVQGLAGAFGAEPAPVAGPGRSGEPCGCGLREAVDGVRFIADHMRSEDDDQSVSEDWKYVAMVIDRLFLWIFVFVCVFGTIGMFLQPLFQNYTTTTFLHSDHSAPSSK", "settings": "10 μM; data from ref. 34; cited from earlier work"}, "Dopamine D3": {"target": "Dopamine D3 (Homo sapiens, UniProt P35462)", "sequence (P35462 whole entry)": "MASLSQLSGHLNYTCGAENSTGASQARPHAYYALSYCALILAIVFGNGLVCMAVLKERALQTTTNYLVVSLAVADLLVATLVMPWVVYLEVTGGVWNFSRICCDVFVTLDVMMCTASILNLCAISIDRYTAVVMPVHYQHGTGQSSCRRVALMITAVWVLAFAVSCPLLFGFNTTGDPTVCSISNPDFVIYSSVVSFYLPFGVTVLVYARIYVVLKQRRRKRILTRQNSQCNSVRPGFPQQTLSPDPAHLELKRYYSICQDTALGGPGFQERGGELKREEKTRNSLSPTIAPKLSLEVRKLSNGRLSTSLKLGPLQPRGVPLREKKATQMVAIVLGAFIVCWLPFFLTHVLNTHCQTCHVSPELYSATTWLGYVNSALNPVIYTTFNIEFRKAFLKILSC", "settings": "10 μM; data from ref. 34; cited from earlier work"}, "Serotonin 5-HT2A [2]": {"target": "T3, Serotonin 5-HT2A (Homo sapiens, UniProt P28223)", "T3 sequence (P28223 whole entry, looked up)": "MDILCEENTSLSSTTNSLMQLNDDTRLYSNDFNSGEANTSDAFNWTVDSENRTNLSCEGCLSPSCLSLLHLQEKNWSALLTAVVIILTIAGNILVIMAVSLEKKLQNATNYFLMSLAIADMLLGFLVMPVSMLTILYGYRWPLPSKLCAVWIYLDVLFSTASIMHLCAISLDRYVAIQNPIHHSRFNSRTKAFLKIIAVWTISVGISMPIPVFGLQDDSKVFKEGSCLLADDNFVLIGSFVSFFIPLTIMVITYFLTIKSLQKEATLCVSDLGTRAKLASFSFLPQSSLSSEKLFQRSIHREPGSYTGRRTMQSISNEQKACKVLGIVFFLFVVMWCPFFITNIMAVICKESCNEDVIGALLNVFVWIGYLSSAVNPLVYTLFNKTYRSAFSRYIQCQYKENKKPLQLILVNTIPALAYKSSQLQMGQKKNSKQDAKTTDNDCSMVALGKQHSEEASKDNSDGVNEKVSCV", "settings": "10 μM; data from ref. 34; cited from earlier work"}, "Opiate κ": {"target": "Opiate κ (Homo sapiens, UniProt P41145)", "sequence (P41145 whole entry)": "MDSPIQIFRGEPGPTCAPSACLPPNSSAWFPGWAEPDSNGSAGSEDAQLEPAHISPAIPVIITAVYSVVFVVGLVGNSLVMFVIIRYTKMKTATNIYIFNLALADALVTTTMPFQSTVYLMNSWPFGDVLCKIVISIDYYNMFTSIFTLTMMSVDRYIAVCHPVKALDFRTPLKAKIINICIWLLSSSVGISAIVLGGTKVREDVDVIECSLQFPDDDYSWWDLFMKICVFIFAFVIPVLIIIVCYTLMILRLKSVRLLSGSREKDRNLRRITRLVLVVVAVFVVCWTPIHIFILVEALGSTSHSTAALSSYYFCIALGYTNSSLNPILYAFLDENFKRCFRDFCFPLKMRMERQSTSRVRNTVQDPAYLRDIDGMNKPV", "settings": "10 μM; data from ref. 34; cited from earlier work"}, "Dopamine D1": {"target": "Dopamine D1 (Homo sapiens, UniProt P21728)", "sequence (P21728 whole entry)": "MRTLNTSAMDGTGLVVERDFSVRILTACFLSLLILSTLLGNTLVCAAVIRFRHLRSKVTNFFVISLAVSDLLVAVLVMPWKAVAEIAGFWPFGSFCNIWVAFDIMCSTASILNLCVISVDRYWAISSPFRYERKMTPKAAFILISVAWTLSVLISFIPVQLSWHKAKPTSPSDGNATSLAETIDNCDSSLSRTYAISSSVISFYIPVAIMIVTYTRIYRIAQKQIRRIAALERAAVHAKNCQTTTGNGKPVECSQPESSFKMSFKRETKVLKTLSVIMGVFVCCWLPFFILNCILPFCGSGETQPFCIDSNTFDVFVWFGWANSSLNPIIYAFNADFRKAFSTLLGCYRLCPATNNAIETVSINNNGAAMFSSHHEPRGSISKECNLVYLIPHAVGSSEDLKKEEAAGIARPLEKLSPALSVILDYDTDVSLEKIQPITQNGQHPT", "settings": "10 μM; data from ref. 34; cited from earlier work"}, "Serotonin 5-HT2A [3]": {"target": "T3, Serotonin 5-HT2A", "settings": "data from ref. 36; read-out: activation potency EC50, Serotonin 5-HT2A; cited from earlier work"}, "Sigma-1": {"target": "Sigma-1 (Homo sapiens, UniProt Q99720)", "sequence (Q99720 whole entry)": "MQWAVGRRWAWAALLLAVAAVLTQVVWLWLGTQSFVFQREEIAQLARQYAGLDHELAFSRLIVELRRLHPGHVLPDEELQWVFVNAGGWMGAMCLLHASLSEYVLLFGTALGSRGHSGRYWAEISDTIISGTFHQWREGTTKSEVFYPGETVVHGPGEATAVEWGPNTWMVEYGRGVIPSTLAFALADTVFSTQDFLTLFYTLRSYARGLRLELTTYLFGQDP"}, "Serotonin 5-HT1A": {"target": "T4, Serotonin 5-HT1A (Homo sapiens, UniProt P08908)", "T4 sequence (P08908 1-422)": "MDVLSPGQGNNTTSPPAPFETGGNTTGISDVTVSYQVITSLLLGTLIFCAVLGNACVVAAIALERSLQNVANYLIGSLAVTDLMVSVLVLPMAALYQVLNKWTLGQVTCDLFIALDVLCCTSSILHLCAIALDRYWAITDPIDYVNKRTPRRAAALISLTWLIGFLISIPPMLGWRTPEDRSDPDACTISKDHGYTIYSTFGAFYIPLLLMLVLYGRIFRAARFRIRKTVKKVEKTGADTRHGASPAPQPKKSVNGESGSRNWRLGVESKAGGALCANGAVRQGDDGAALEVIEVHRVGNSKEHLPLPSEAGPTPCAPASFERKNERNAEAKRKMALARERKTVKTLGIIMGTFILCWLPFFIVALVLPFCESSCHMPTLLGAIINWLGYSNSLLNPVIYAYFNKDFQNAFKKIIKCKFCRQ", "settings": "read-out: inhibition constants Ki, Serotonin 5-HT1A; data from ref. 36; cited from earlier work"}}, "note": "Read-outs that look alike come from different tables or passages of the source. Marks after values point to notes of the source that are not given here.", "data": [{"smiles": "CCN(CC)C(=O)[C@@H]1C=C2c3cccc4[nH]cc(c34)C[C@H]2N(C)C1", "note": "[D-LSD, D-lysergic acid diethylamide]", "values": [{"measurement": "Percent Inhibition of Specific Binding of a Radioligand Standard, Dopamine D2L", "setting": "Dopamine D2L", "result": 85, "unit": "% inh"}, {"measurement": "Percent Inhibition of Specific Binding of a Radioligand Standard, Muscarinic M5", "setting": "Muscarinic M5", "result": 15, "unit": "% inh"}, {"measurement": "Percent Inhibition of Specific Binding of a Radioligand Standard, Adrenergic α1", "setting": "Adrenergic α1", "result": "100^d % inh"}, {"measurement": "Percent Inhibition of Specific Binding of a Radioligand Standard, GABAA", "setting": "GABAA", "result": 0, "unit": "% inh"}, {"measurement": "Percent Inhibition of Specific Binding of a Radioligand Standard, Muscarinic M2", "setting": "Muscarinic M2", "result": 2, "unit": "% inh"}, {"measurement": "Percent Inhibition of Specific Binding of a Radioligand Standard, Nicotinic Acetylcholine α4β2", "setting": "[1]", "result": 0, "unit": "% inh"}, {"measurement": "Percent Inhibition of Specific Binding of a Radioligand Standard, Dopamine D3", "setting": "Dopamine D3", "result": 78, "unit": "% inh"}, {"measurement": "Percent Inhibition of Specific Binding of a Radioligand Standard, Serotonin 5-HT2A", "setting": "Serotonin 5-HT2A [2]", "result": 93, "unit": "% inh"}, {"measurement": "Percent Inhibition of Specific Binding of a Radioligand Standard, Opiate κ", "setting": "Opiate κ", "result": 29, "unit": "% inh"}, {"measurement": "Percent Inhibition of Specific Binding of a Radioligand Standard, Dopamine D1", "setting": "Dopamine D1", "result": 93, "unit": "% inh"}]}, {"smiles": "CN(C)CCc1c[nH]c2ccccc12", "note": "[DMT]", "values": [{"measurement": "EC50", "setting": "Serotonin 5-HT2A [3]", "result": 76, "unit": "nM"}, {"measurement": "Ki", "setting": "Sigma-1; data from ref. 37; read-out: inhibition constants Ki, Sigma-1; cited from earlier work", "result": 5200, "unit": "nM"}]}, {"smiles": "CN(C)CCc1c[nH]c2cccc(O)c12", "note": "[Psilocin]", "values": [{"measurement": "Ki", "setting": "Serotonin 5-HT1A", "result": 123, "unit": "nM"}, {"measurement": "Ki", "setting": "Sigma-1; read-out: inhibition constants Ki, Sigma-1; data from ref. 37; cited from earlier work", "result": "> 10000", "unit": "nM"}]}]}
